Measurements taken from PubChem BioAssay AID330 (DTP/NCI, 2004).
Where “and” joins values, the source holds several entries; their conditions need not be identical. Equal entries are not always repeated. Inconclusive results and toxic doses are left out.

Tested on: P388 leukemia ip, CD2F1 mice, survival T/C
Assay: NCI In Vivo Anticancer Drug Screen. Data for tumor model P388 Leukemia (intraperitoneal) in CD2F1 (CDF1) mice
Conditions: endpoint: median survival time, higher = longer survival
Outline: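 Mice carrying the transplanted tumor received test compound or vehicle. Survival was recorded in each group, and the value is the treated-group measurement divided by that of the vehicle-treated control group.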

[1] = dose: 60.0 mg/kg/injection, schedule: Q01DX005 (ip), vehicle: saline with Tween-80
[2] = dose: 120.0 mg/kg/injection, schedule: Q01DX005 (ip), vehicle: saline with Tween-80
[3] = dose: 240.0 mg/kg/injection, schedule: Q01DX005 (ip), vehicle: saline with Tween-80
[4] = dose: 100.0 mg/kg/injection, schedule: Q04DX003 (ip), vehicle: Klucel (hydroxypropylcellulose) (HPC)
[5] = dose: 200.0 mg/kg/injection, schedule: Q04DX003 (ip), vehicle: Klucel (hydroxypropylcellulose) (HPC)

COc1ccc2nc3cc(Cl)ccc3c(NC(C)CCCN(C)C)c2n1 (stereo not given)
T/C (dose: 50.0 mg/kg/injection, schedule: Q01DX005 (ip), vehicle: saline): 102 % of control
T/C (dose: 100.0 mg/kg/injection, schedule: Q01DX005 (ip), vehicle: saline): 110 % of control

COC(=O)c1nc(NC#N)[nH]c(=O)c1CCCCCc1cnc(NC#N)nc1
T/C [1]: 100 % of control
T/C [2]: 100 % of control
T/C [3]: 97 % of control

O=C1C=CC(=O)C(CC2CCCC2C2=CC(=O)C=CC2=O)=C1 (stereo not given)
T/C (dose: 6.25 mg/kg/injection, schedule: Q04DX002 (ip), vehicle: saline with Tween-80): 109 % of control
T/C (dose: 12.5 mg/kg/injection, schedule: Q04DX002 (ip), vehicle: saline with Tween-80): 101 % of control
T/C (dose: 25.0 mg/kg/injection, schedule: Q04DX002 (ip), vehicle: saline with Tween-80): 99 % of control and 109 % of control

CC1(C)CCCC2(C)C1CCC1(C)OC(/C(C=O)=C/C=O)CC12 (stereo not given)
T/C (dose: 40.0 mg/kg/injection, schedule: Q01DX009 (ip), vehicle: Klucel (hydroxypropylcellulose) (HPC)): 112 % of control
T/C (dose: 80.0 mg/kg/injection, schedule: Q01DX009 (ip), vehicle: Klucel (hydroxypropylcellulose) (HPC)): 105 % of control

COc1ccc(C2OCC3C2CO[C@H]3c2ccc(OC)c(OC)c2)cc1OC (mixture of isomers)
T/C (dose: 8.0 mg/kg/injection, schedule: Q01DX009 (ip), vehicle: Klucel (hydroxypropylcellulose) (HPC)): 90 % of control
T/C (dose: 16.0 mg/kg/injection, schedule: Q01DX009 (ip), vehicle: Klucel (hydroxypropylcellulose) (HPC)): 97 % of control
T/C (dose: 32.0 mg/kg/injection, schedule: Q01DX009 (ip), vehicle: Klucel (hydroxypropylcellulose) (HPC)): 91 % of control
T/C (dose: 64.0 mg/kg/injection, schedule: Q01DX009 (ip), vehicle: Klucel (hydroxypropylcellulose) (HPC)): 89 % of control

C=CCN1C(=O)[N+](C)(C)N=C1[O-]
T/C (dose: 100.0 mg/kg/injection, schedule: Q04DX003 (ip), vehicle: saline): 106 % of control
T/C (dose: 200.0 mg/kg/injection, schedule: Q04DX003 (ip), vehicle: saline): 106 % of control
T/C (dose: 400.0 mg/kg/injection, schedule: Q04DX003 (ip), vehicle: saline): 101 % of control

O=c1[nH]nc(SCc2ccc(Cl)cc2Cl)c(=O)[nH]1
T/C (dose: 6.25 mg/kg/injection, schedule: Q01DX005 (ip), vehicle: Klucel (hydroxypropylcellulose) (HPC)): 100 % of control
T/C (dose: 12.5 mg/kg/injection, schedule: Q01DX005 (ip), vehicle: Klucel (hydroxypropylcellulose) (HPC)): 94 % of control
T/C (dose: 25.0 mg/kg/injection, schedule: Q01DX005 (ip), vehicle: Klucel (hydroxypropylcellulose) (HPC)): 86 % of control

COc1cccc2c1C(=O)c1c(O)c3c(c(O)c1C2=O)CC(O)(C(C)=O)CC3OC1CC(NC(=O)C(CCCCN)NC(=O)C2CCCN2)C(O)C(C)O1 (stereo not given)
T/C (dose: 2.5 mg/kg/injection, schedule: Q04DX003 (ip), vehicle: water): 93 % of control
T/C (dose: 5.0 mg/kg/injection, schedule: Q04DX003 (ip), vehicle: water): 98 % of control
T/C (dose: 10.0 mg/kg/injection, schedule: Q04DX003 (ip), vehicle: water): 99 % of control and 109 % of control
T/C (dose: 20.0 mg/kg/injection, schedule: Q04DX003 (ip), vehicle: water): 110 % of control and 118 % of control
T/C (dose: 40.0 mg/kg/injection, schedule: Q04DX003 (ip), vehicle: water): 121 % of control and 123 % of control
T/C (dose: 80.0 mg/kg/injection, schedule: Q04DX003 (ip), vehicle: water): 166 % of control

COc1ccc(CSC(=S)Nc2ccc(Cl)c([N+](=O)[O-])c2)cc1
T/C (dose: 50.0 mg/kg/injection, schedule: Q01DX009 (ip), vehicle: suspension in saline): 108 % of control
T/C (dose: 100.0 mg/kg/injection, schedule: Q01DX009 (ip), vehicle: suspension in saline): 99 % of control
T/C (dose: 200.0 mg/kg/injection, schedule: Q01DX009 (ip), vehicle: suspension in saline): 99 % of control

CCC(C)C1C(=O)O[B-](F)(F)/[N+]1=C\c1ccccc1 (stereo not given)
T/C [4]: 104 % of control
T/C [5]: 109 % of control

O=S(=O)(c1ccc(N=Cc2cccs2)cc1)c1ccc(N=Cc2cccs2)cc1
T/C (dose: 50.0 mg/kg/injection, schedule: Q01DX009 (ip), vehicle: saline): 99 % of control
T/C (dose: 100.0 mg/kg/injection, schedule: Q01DX009 (ip), vehicle: saline): 98 % of control
T/C (dose: 200.0 mg/kg/injection, schedule: Q01DX009 (ip), vehicle: saline): 91 % of control and 95 % of control

O=c1c2cc(Cl)ccc2on1CN1CCOCC1
T/C (dose: 50.0 mg/kg/injection, schedule: Q01DX005 (ip), vehicle: saline with Tween-80): 111 % of control
T/C (dose: 100.0 mg/kg/injection, schedule: Q01DX005 (ip), vehicle: saline with Tween-80): 118 % of control
T/C (dose: 200.0 mg/kg/injection, schedule: Q01DX005 (ip), vehicle: saline with Tween-80): 111 % of control

Cc1cc(=O)[nH]c2cc(NN)ccc12
T/C [1]: 96 % of control
T/C [2]: 92 % of control
T/C [3]: 95 % of control

CC(c1ccccc1)N1COc2ccc3ccccc3c2C1 (stereo not given)
T/C (dose: 100.0 mg/kg/injection, schedule: Q04DX003 (ip), vehicle: saline with Tween-80): 95 % of control
T/C (dose: 200.0 mg/kg/injection, schedule: Q04DX003 (ip), vehicle: saline with Tween-80): 95 % of control
T/C (dose: 400.0 mg/kg/injection, schedule: Q04DX003 (ip), vehicle: saline with Tween-80): 95 % of control

O=C(Nc1ccccc1)OCc1c(COC(=O)Nc2ccccc2)c(-c2ccc(Cl)c(Cl)c2)n2c1CCC2
T/C (dose: 12.5 mg/kg/injection, schedule: Q01DX005 (ip), vehicle: distilled water + Tween-80): 122 % of control
T/C (dose: 100.0 mg/kg/injection, schedule: Q01DX005 (ip), vehicle: distilled water + Tween-80): 155 % of control
T/C (dose: 200.0 mg/kg/injection, schedule: Q01DX005 (ip), vehicle: distilled water + Tween-80): 160 % of control

ClC(c1ccccc1)C1(Cl)C=c2ccccc2=C1 (stereo not given)
T/C (dose: 100.0 mg/kg/injection, schedule: Q01DX009 (ip), vehicle: Klucel (hydroxypropylcellulose) (HPC)): 109 % of control
T/C [4]: 100 % of control
T/C (dose: 200.0 mg/kg/injection, schedule: Q01DX009 (ip), vehicle: Klucel (hydroxypropylcellulose) (HPC)): 109 % of control
T/C [5]: 104 % of control
T/C (dose: 400.0 mg/kg/injection, schedule: Q01DX009 (ip), vehicle: Klucel (hydroxypropylcellulose) (HPC)): 113 % of control
T/C (dose: 400.0 mg/kg/injection, schedule: Q04DX003 (ip), vehicle: Klucel (hydroxypropylcellulose) (HPC)): 109 % of control

O=C(CNNC(=O)OCc1ccccc1)OCc1ccccc1
T/C (dose: 12.5 mg/kg/injection, schedule: Q01DX009 (ip), vehicle: other): 95 % of control
T/C (dose: 25.0 mg/kg/injection, schedule: Q01DX009 (ip), vehicle: other): 99 % of control
T/C (dose: 50.0 mg/kg/injection, schedule: Q01DX009 (ip), vehicle: other): 93 % of control
T/C (dose: 100.0 mg/kg/injection, schedule: Q01DX009 (ip), vehicle: other): 96 % of control

CCN(CC)CC(C)Nc1cc(C)nc2c1ccc1c2ccc2c(NC(C)CN(CC)CC)cc(C)nc21 (stereo not given)
T/C (dose: 12.5 mg/kg/injection, schedule: Q01DX009 (ip), vehicle: distilled water + Tween-80): 113 % of control
T/C (dose: 25.0 mg/kg/injection, schedule: Q01DX009 (ip), vehicle: distilled water + Tween-80): 111 % of control
T/C (dose: 50.0 mg/kg/injection, schedule: Q01DX009 (ip), vehicle: distilled water + Tween-80): 119 % of control

COc1ccc2c(C)cc(N/N=C/c3ccc([N+](=O)[O-])o3)nc2c1
T/C (dose: 50.0 mg/kg/injection, schedule: Q01DX005 (ip), vehicle: Klucel (hydroxypropylcellulose) (HPC)): 100 % of control
T/C (dose: 100.0 mg/kg/injection, schedule: Q01DX005 (ip), vehicle: Klucel (hydroxypropylcellulose) (HPC)): 101 % of control
T/C (dose: 200.0 mg/kg/injection, schedule: Q01DX005 (ip), vehicle: Klucel (hydroxypropylcellulose) (HPC)): 90 % of control

CC(C)C(N)C(=O)Nc1nncs1 (stereo not given)
T/C (dose: 100.0 mg/kg/injection, schedule: Q04DX002 (ip), vehicle: saline): 106 % of control
T/C (dose: 200.0 mg/kg/injection, schedule: Q04DX002 (ip), vehicle: saline): 183 % of control
T/C (dose: 400.0 mg/kg/injection, schedule: Q04DX002 (ip), vehicle: saline): 157 % of control and 190 % of control
T/C (dose: 600.0 mg/kg/injection, schedule: Q04DX002 (ip), vehicle: saline): 171 % of control

C[N+](C)(C)CCC(=O)c1ccco1
T/C (dose: 6.25 mg/kg/injection, schedule: Q01DX009 (ip), vehicle: saline): 117 % of control
T/C (dose: 12.5 mg/kg/injection, schedule: Q01DX009 (ip), vehicle: saline): 117 % of control
T/C (dose: 25.0 mg/kg/injection, schedule: Q01DX009 (ip), vehicle: saline with Tween-80): 111 % of control
T/C (dose: 25.0 mg/kg/injection, schedule: Q01DX009 (ip), vehicle: saline): 106 % of control
